Assay results as given in patent publication US10829501B2 (BRISTOL-MYERS SQUIBB COMPANY, priority 2016, dated 2020).
Counter-ions that a name gives are not always drawn.

target: ROCK2 (Homo sapiens, UniProt O75116); assay: ROCK2 kinase inhibition assay (LABCHIP 3000 Reader, FITC peptide substrate); details: not given;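 further: rho kinase reaction read by separating phosphorylated from unphosphorylated peptide on chip, with inhibition of kinase activity computed per concentration across a dose-response series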
Sequence (O75116 whole entry, species assumed): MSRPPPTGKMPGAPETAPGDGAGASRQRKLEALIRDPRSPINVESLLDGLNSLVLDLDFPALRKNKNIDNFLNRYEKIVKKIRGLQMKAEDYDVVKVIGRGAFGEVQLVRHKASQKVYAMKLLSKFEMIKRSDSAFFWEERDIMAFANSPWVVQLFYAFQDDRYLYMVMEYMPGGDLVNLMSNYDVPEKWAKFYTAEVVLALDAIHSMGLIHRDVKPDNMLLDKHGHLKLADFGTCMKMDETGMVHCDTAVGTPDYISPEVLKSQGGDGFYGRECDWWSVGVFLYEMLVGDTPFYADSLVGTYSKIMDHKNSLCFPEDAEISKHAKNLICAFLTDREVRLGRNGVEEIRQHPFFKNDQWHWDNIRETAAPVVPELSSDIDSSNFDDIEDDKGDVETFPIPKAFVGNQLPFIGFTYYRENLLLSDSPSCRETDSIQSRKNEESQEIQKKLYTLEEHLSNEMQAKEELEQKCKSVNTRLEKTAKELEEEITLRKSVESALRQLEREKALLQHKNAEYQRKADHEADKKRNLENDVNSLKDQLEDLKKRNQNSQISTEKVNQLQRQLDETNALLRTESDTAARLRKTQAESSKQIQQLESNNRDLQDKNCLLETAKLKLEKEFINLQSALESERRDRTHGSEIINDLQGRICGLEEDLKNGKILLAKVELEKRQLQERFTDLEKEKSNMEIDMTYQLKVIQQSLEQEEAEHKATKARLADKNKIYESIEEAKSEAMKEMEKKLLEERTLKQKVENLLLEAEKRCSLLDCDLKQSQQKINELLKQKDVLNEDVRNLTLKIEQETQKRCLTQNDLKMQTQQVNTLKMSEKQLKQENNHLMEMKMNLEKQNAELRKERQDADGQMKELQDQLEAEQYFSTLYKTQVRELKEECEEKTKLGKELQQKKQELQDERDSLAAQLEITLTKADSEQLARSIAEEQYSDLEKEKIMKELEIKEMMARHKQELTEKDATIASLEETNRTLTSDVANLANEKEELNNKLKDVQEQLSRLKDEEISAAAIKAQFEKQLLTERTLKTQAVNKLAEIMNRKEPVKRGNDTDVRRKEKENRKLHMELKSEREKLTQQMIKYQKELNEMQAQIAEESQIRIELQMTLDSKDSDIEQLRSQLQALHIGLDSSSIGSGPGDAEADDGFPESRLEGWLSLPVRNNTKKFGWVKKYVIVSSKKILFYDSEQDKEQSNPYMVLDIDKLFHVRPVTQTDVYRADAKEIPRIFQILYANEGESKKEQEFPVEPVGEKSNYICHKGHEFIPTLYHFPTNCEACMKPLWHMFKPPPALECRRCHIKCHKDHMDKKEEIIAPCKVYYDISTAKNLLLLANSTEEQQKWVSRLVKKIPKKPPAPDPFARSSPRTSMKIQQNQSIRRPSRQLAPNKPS

Structure (SMILES) | IC50
Cc1c(C(=O)NC2CC3(C2)CC(Oc2ncccc2C(N)=O)C3)cnn1-c1cccc(C#N)c1 (centres unmarked) [Example 399] | 50 to 250 nM
[H][C@]1(Oc2ncccc2C(N)=O)C[C@@]2(C[C@H](NC(=O)c3nn(C(C)(C)C#N)c4cc(-c5cnn(C)c5)ccc34)C2)C1 (stereo partly drawn) [Example 406, N-((aR)-6-((3-carbamoylpyridin-2-yl)oxy)spiro[3.3]heptan-2-yl)-1-(2-cyanopropan-2-yl)-6-(1-methyl-1H-pyrazol-4-yl)-1H-indazole-3-carboxamide, TFA] | < 5 nM
[H][C@]1(Oc2ncccc2C(N)=O)C[C@@]2(C[C@H](NC(=O)c3nn(C(C)(C)C#N)c4cc(-c5cnn(C(F)F)c5)ccc34)C2)C1 (stereo partly drawn) [Example 407, N-((aR)-6-((3-carbamoylpyridin-2-yl)oxy)spiro[3.3]heptan-2-yl)-1-(2-cyanopropan-2-yl)-6-(1-(difluoromethyl)-1H-pyrazol-4-yl)-1H-indazole-3-carboxamide, TFA] | < 5 nM
[H][C@]1(Oc2ncccc2C(N)=O)C[C@@]2(C[C@H](NC(=O)c3nn(C(C)(C)C(N)=O)c4cc(-c5cnn(C)c5)ccc34)C2)C1 (stereo partly drawn) [Example 408, 1-(1-amino-2-methyl-1-oxopropan-2-yl)-N-((aR)-6-((3-carbamoylpyridin-2-yl)oxy)spiro[3.3]heptan-2-yl)-6-(1-methyl-1H-pyrazol-4-yl)-1H-indazole-3-carboxamide, TFA] | 5 to 50 nM
CC(C)(C(N)=O)n1nc(C(=O)N[C@H]2CC3(C2)C[C@H](Oc2ncccc2C(N)=O)C3)c2ccc(-c3cnn(C(F)F)c3)cc21 (stereo partly drawn) [Example 409, 1-(1-amino-2-methyl-1-oxopropan-2-yl)-N-((aR)-6-((3-carbamoylpyridin-2-yl)oxy)spiro[3.3]heptan-2-yl)-6-(1-(difluoromethyl)-1H-pyrazol-4-yl)-1H-indazole-3-carboxamide, TFA] | < 5 nM
[H][C@]1(Oc2ncccc2C(N)=O)C[C@@]2(C[C@H](NC(=O)c3nn(C(C)(C)C(N)=O)c4cc(OCCC(F)(F)F)ccc34)C2)C1 (stereo partly drawn) [Example 410, 1-(1-amino-2-methyl-1-oxopropan-2-yl)-N-((aR)-6-((3-carbamoylpyridin-2-yl)oxy)spiro[3.3]heptan-2-yl)-6-(3,3,3-trifluoropropoxy)-1H-indazole-3-carboxamide, TFA] | 5 to 50 nM
[H][C@]1(Oc2ncccc2C(N)=O)C[C@@]2(C[C@H](NC(=O)c3nn(C(C)(C)C#N)c4cc(OCCC(F)(F)F)ccc34)C2)C1 (stereo partly drawn) [Example 411, N-((aR)-6-((3-carbamoylpyridin-2-yl)oxy)spiro[3.3]heptan-2-yl)-1-(2-cyanopropan-2-yl)-6-(3,3,3-trifluoropropoxy)-1H-indazole-3-carboxamide, TFA] | 5 to 50 nM
CC(C)(O)COc1ccc2c(C(=O)N[C@H]3CC4(C3)C[C@H](Oc3ncccc3C(N)=O)C4)nn(C(C)(C)C(N)=O)c2c1 (stereo partly drawn) [Example 412, 1-(1-amino-2-methyl-1-oxopropan-2-yl)-N-((aR)-6-((3-carbamoylpyridin-2-yl)oxy)spiro[3.3]heptan-2-yl)-6-(2-hydroxy-2-methylpropoxy)-1H-indazole-3-carboxamide, TFA] | 5 to 50 nM
NC(=O)c1cccnc1O[C@H]1CC2(C[C@H](NC(=O)c3cnn4cc(OCC5(O)CC(F)(F)C5)ccc34)C2)C1 (stereo partly drawn) [Example 413, N-((aR)-6-((3-carbamoylpyridin-2-yl)oxy)spiro[3.3]heptan-2-yl)-6-((3,3-difluoro-1-hydroxycyclobutyl)methoxy)pyrazolo[1,5-a]pyridine-3-carboxamide, TFA] | 5 to 50 nM
NC(=O)c1cccnc1O[C@H]1CC2(C[C@H](NC(=O)c3cnn4c(C5CC5)c(OCC5(O)CC(F)(F)C5)ccc34)C2)C1 (stereo partly drawn) [Example 415, N-((aR)-6-((3-carbamoylpyridin-2-yl)oxy)spiro[3.3]heptan-2-yl)-7-cyclopropyl-6-((3,3-difluoro-1-hydroxycyclobutyl)methoxy)pyrazolo[1,5-a]pyridine-3-carboxamide, TFA] | < 5 nM
CN(C)Cc1nc(C(=O)N[C@H]2CC3(C2)C[C@H](Oc2ncccc2C(N)=O)C3)c2ccc(OCc3ccccc3)cn12 (stereo partly drawn) [Example 416, 6-(benzyloxy)-N-((aR)-6-((3-carbamoylpyridin-2-yl)oxy)spiro[3.3]heptan-2-yl)-3-((dimethylamino)melhyl)imidazo[1,5-a]pyridine-1-carboxamide, TFA] | 5 to 50 nM

Continued, values first:

IC50 | Structure (SMILES)
5 to 50 nM | NC(=O)c1cccnc1OC1CC2(CC(NC(=O)c3cnc(-c4ccc(S(=O)(=O)C5CC5)cc4)s3)C2)C1 [Example 417, N-((aR)-6-((3-carbainoylpyridin-2-yl)oxy)spiro[3.3]heptan-2-yl)-2-(4-(cyclopropylsulfonyl)phenyl)thiazole-5-carboxamide, TFA]
5 to 50 nM | N#Cc1ccc(-c2ncc(C(=O)NC3CC4(C3)CC(Oc3ncccc3C(N)=O)C4)s2)cc1 [Example 418, N-((aR)-6-((3-carbamoylpyridin-2-yl)oxy)spiro[3.3]heptan-2-yl)-2-(4-cyanophenyl)thiazole-5-carboxamide, TFA]
50 to 250 nM | CNC(=O)c1ccc(-c2ncc(C(=O)NC3CC4(C3)CC(Oc3ncccc3C(N)=O)C4)s2)cc1F [Example 419, N-((aR)-6-((3-carbamoylpyridin-2-yl)oxy)spiro[3.3]heptan-2-yl)-2-(3-fluoro-4-(methylcarbamoyl)phenyl)thiazole-5-carboxamide, TFA]
5 to 50 nM | N#Cc1cccc(-c2ncc(C(=O)NC3CC4(C3)CC(Oc3ncccc3C(N)=O)C4)s2)c1 [Example 420, N-((aR)-6-((3-carbamoylpyridin-2-yl)oxy)spiro[3.3]heptan-2-yl)-2-(3-cyanophenyl)thiazole-5-carboxamide, TFA]

same assay, conditions: read-out: ROCK2 Activity (ROCK2 IC50); 5 μM ATP, 1.5 μM peptide substrate, pH 7.5

Structure (SMILES) | IC50
COc1ccc(-n2ncc(C(=O)N[C@H]3CC4(C3)C[C@H](Oc3ncccc3C(N)=O)C4)c2C)cn1 (some centres unmarked) [Example 400] | 5 to 50 nM
CC(C)(C#N)n1nc(C(=O)NC2CC3(C2)CC(Oc2ncccc2C(N)=O)C3)c2ccc(F)cc21 [Example 401, N-((aR)-6-((3-carbamoylpyridin-2-yl)oxy)spiro[3.3]heptan-2-yl)-1-(2-cyanopropan-2-yl)-6-fluoro-1H-indazole-3-carboxamide, TFA] | < 5 nM
CC(C)(C(N)=O)n1nc(C(=O)NC2CC3(C2)CC(Oc2ncccc2C(N)=O)C3)c2ccc(F)cc21 [Example 402, 1-(1-amino-2-methyl-1-oxopropan-2-yl)-N-((aR)-6-((3-carbamoylpyridin-2-yl)oxy)spiro[3.3]heptan-2-yl)-6-fluoro-1H-indazole-3-carboxamide, TFA] | 5 to 50 nM
CC(C)(C#N)n1nc(C(=O)NC2CC3(C2)CC(Oc2ncccc2C(N)=O)C3)c2ccc(Br)cc21 [Example 403, 6-bromo-N-((aR)-6-((3-carbamoylpyridin-2-yl)oxy)spiro[3.3]heptan-2-yl)-1-(2-cyanopropan-2-yl)-1H-indazole-3-carboxamide, TFA] | 5 to 50 nM
Cn1cc(-c2ccc3c(C(=O)NC4CC5(C4)CC(Oc4ncccc4C(N)=O)C5)nn(CC4(O)CC(F)(F)C4)c3c2)cn1 [Example 404, N-((aR)-6-((3-carbamoylpyridin-2-yl)oxy)spiro[3.3]heptan-2-yl)-1-((3,3-difluoro-1-hydroxycyclobutyl)methyl)-6-(1-methyl-1H-pyrazol-4-yl)-1H-indazole-3-carboxamide, TFA] | 5 to 50 nM
Cn1cc(-c2ccc3c(C(=O)NC4CC5(C4)CC(Oc4ncccc4C(N)=O)C5)nn(CC4(O)CCC4)c3c2)cn1 [Example 405, N-((aR)-6-((3-carbamoylpyridin-2-yl)oxy)spiro[3.3]heptan-2-yl)-1-((1-hydroxycyclobutyl)methyl)-6-(1-methyl-1H-pyrazol-4-yl)-1H-indazole-3-carboxamide, TFA] | < 5 nM

The remaining lines, values ahead:

IC50 | Structure (SMILES)
5 to 50 nM | NC(=O)c1cccnc1OC1CC2(CC(NC(=O)c3nc(Br)n4ccccc34)C2)C1 [Example 421, 3-bromo-N-((aR)-6-((3-carbamoylpyridin-2-yl)oxy)spiro[3.3]heptan-2-yl)imidazo[1,5-a]pyridine-1-carboxamide]
5 to 50 nM | CN1CCN(c2cc(C(=O)NC3CC4(C3)CC(Oc3ncccc3C(N)=O)C4)cc(C(F)(F)F)c2)CC1 [Example 422, 2-(((aR)-6-(3-(4-methylpiperazin-1-yl)-5-(trifluoromethyl)benzamido)spiro[3.3]heptan-2-yl)oxy)nicotinamide]
5 to 50 nM | CC(C)(C)c1cccc(C(=O)NC2CC3(C2)CC(Oc2ncccc2C(N)=O)C3)c1 [Example 423, 2-(((aR)-6-(3-(tert-butyl)benzamido)spiro[3.3]heptan-2-yl)oxy)nicotinamide]
5 to 50 nM | Cn1cc2c(C(=O)NC3CC4(C3)CC(Oc3ncccc3C(N)=O)C4)cc(Br)cc2n1 [Example 424, 6-bromo-N-((aR)-6-((3-carbamoylpyridin-2-yl)oxy)spiro[3.3]heptan-2-yl)-2-methyl-2H-indazole-4-carboxamide]
5 to 50 nM | Cn1ncc2c(C(=O)NC3CC4(C3)CC(Oc3ncccc3C(N)=O)C4)cc(Br)cc21 [Example 425, 6-bromo-N-((aR)-6-((3-carbamoylpyridin-2-yl)oxy)spiro[3.3]heptan-2-yl)-1-methyl-1H-indazole-4-carboxamide]
5 to 50 nM | NC(=O)c1cccnc1OC1CC2(CC(NC(=O)c3cc(C(F)(F)F)cc4c3NC(=O)OC4)C2)C1 [Example 426, N-((aR)-6-((3-carbamoylpyridin-2-yl)oxy)spiro[3.3]heptan-2-yl)-2-oxo-6-(trifluoromethyl)-1,4-dihydro-2H-benzo[d][1,3]oxazine-8-carboxamide]
5 to 50 nM | NC(=O)c1cccnc1OC1CC2(CC(NC(=O)c3cc(Br)cc(C(F)(F)F)c3)C2)C1 [Example 427, 2-(((aR)-6-(3-bromo-5-(trifluoromethyl)benzamido)spiro[3.3]heptan-2-yl)oxy)nicotinamide]
< 5 nM | Cn1cc(-c2cc(C(=O)NC3CC4(C3)CC(Oc3ncccc3C(N)=O)C4)cc(C(F)(F)F)c2)cn1 [Example 428, 2-(((aR)-6-(3-(1-methyl-1H-pyrazol-4-yl)-5-(trifluoromethyl)benzamido)spiro[3.3]heptan-2-yl)oxy)nicotinamide]
